Converted amounts (≈) assume the structure as drawn.
What was measured:
Assay type in all cases: cell-based
[1] = test system: P. falciparum 3D7 (chloroquine-sensitive); experiment: Anti-malarial activity, P. falciparum 3D7 culture, 72 hour, DNA content by flow cytometry; details: Plasmodium falciparum, 3D7, 72 h, synchronized ring-stage parasites
Outline: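 Magnet-synchronized ring-stage parasites in RPMI 1640/Albumax II were plated at 0.5% parasitemia, 4% final hematocrit, with compound added as 2× dilutions (2.5 μM to 20 nM) for 72 h. Fixed, Triton-permeabilized cells were stained with SYTOX Green (5 μM final), and DNA content was measured by flow cytometry to derive IC50.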

[2] = test system: P. falciparum DD2 (chloroquine-resistant); experiment: Anti-malarial activity, P. falciparum DD2 culture, 72 hour, DNA content by flow cytometry; details: Plasmodium falciparum, synchronized ring-stage parasites
Protocol: Numerous compounds were screened in cultures of the malaria parasite P. falciparum 3D7 (chloroquine-sensitive) and DD2 (chloroquine-resistant). The compounds were also screened for toxixcity against 3T3 cells, HepG2 cells, and in a hemolysis assay. In brief, P. falciparum parasites were cultured in RPMI 1640 (Invitrogen) supplemented with Albumax II (Invitrogen). For synchronization, schizont stage parasites were magnet purified using a SuperMACS™ II Cell Separation Unit (Miltenyi Biotech). For IC50 determinations, synchronized ring-stage parasites were plated at 0.5% parasitemia and 8% hematocrit in 96-well plates at a total volume of 50 μL. Serial dilutions of 2× concentration of the respective compound, ranging from 2.5 μM to 20 nM, were added to the wells to bring the total volume up to 100 μL and 4% hematocrit. Compounds were assayed for a 72 hour period, after which the cultures were fixed with a solution of 4% paraformaldehyde and 0.08% glutaraldhyde in PBS. The cells were then permeabilized with 0.25% Triton X-100, and SYTOX Green Nucleic Acid Stain (Invitrogen) in PBS was added to a final concentration of 5 μM. DNA content, as an indicator of parasitemia, was analyzed on an Accuri C6 Flow Cytometer with C-Sampler. IC50 curves were generated using GraphPad Prism (GraphPad Software).

[3] = Cytotoxicity against 3T3 cells; details: mouse, 3T3 cells; read-out: Cytotoxicity 3T3 EC50
[4] = Cytotoxicity against HepG2 cells; details: human, HepG2 cells; read-out: Cytotoxicity HepG2 EC50
in vitro = experiment: in vitro

Compound	IC50 [1]	IC50 [2]	EC50 [3]	EC50 [4]	EC50 (in vitro)
N=C(N)NCCc1cccc(NC(=O)c2cc(C(=O)Nc3cccc(CCNC(=N)N)c3)ncn2)c1 [Compound 100]	0.035 µM	0.135 µM	769 µM	830 µM	> 1000 µg/mL
N#Cc1cccc(C(=O)Nc2cc(C(F)(F)F)cc(NC(=O)c3cc(C(=O)Nc4cc(C(F)(F)F)cc(NC(=O)c5cccc(C#N)c5)c4SCCN)ncn3)c2SCCN)c1 [Compound 101]	0.047 µM	0.113 µM	74.4 µM	27 µM	583 µg/mL (≈ 653 µM)
N=C(N)NCCCCOc1cc(OCCCCNC(=N)N)c(C(F)(F)F)cc1NC(=O)c1cc(C(=O)Nc2cc(C(F)(F)F)c(OCCCCNC(=N)N)cc2OCCCCNC(=N)N)ncn1 [Compound 104]	0.2 µM	0.301 µM	25 µM	39 µM	2 µg/mL (≈ 2.06 µM)
CC(C)(C)c1cc(NC(=O)CCCCNS(C)(=O)=O)c(SCCNS(C)(=O)=O)c(NC(=O)c2cccc(C(=O)Nc3cc(C(C)(C)C)cc(NC(=O)CCCCNS(C)(=O)=O)c3SCCNS(C)(=O)=O)c2)c1 [Compound 107]	0.295 µM	0.484 µM	> 1000 µM	> 1000 µM	> 1000 µg/mL
N=C(N)N1CCC(Oc2cc(OC3CCN(C(=N)N)C3)c(C(F)(F)F)cc2NC(=O)c2cc(C(=O)Nc3cc(C(F)(F)F)c(O[C@@H]4CCN(C(=N)N)C4)cc3O[C@@H]3CCN(C(=N)N)C3)ncn2)C1 (stereo partly shown) [Compound 111]	0.61 µM	0.431 µM	32 µM	84 µM	65 µg/mL (≈ 67.5 µM)
N=C(N)NCCSc1cc(SCCNC(=N)N)c(C(F)(F)F)cc1NC(=O)c1cc(C(=O)Nc2cc(C(F)(F)F)c(SCCNC(=N)N)cc2SCCNC(=N)N)ncn1 [Compound 114]	0.672 µM	0.656 µM	31 µM	57 µM	61 µg/mL (≈ 66.1 µM)
N=C(N)NCCSc1cc(SCCN)c(NC(=O)c2cc(C(=O)Nc3cc(C(F)(F)F)c(SCCNC(=N)N)cc3SCCN)ncn2)cc1C(F)(F)F [Compound 115]	0.68 µM	0.664 µM	26 µM	47 µM	35 µg/mL (≈ 41.7 µM)
N=C(N)NCCCc1cc(SCCN)c(NC(=O)c2cc(C(=O)Nc3cc(C(F)(F)F)c(CCCNC(=N)N)cc3SCCN)ncn2)cc1C(F)(F)F [Compound 116]	0.706 µM	0.398 µM	76 µM	95 µM	39 µg/mL (≈ 48.6 µM)
N=C(N)NCCCCOc1cc(OCCCCNC(=N)N)c(C(F)(F)F)cc1NC(=O)Nc1cc(C(F)(F)F)c(OCCCCNC(=N)N)cc1OCCCCNC(=N)N [Compound 128]	0.881 µM	0.886 µM	121 µM	232 µM	58 µg/mL (≈ 67.1 µM)
N=C(N)NCCCCC(=O)Nc1ccc(-c2nnc(-c3ccc(NC(=O)CCCCNC(=N)N)cc3)o2)cc1 [Compound 131]	0.042 µM	0.065 µM	322 µM	356 µM	212 µg/mL (≈ 397 µM)
NCCN1CCc2ccc(NC(=O)c3cc(C(=O)Nc4ccc5c(c4)CCN(CCN)CC5)ncn3)cc2CC1 [Compound 146]	0.308 µM	0.331 µM	373 µM	373 µM	123 µg/mL (≈ 227 µM)
CC(C)N1CCc2ccc(NC(=O)c3cc(C(=O)Nc4ccc5c(c4)CCN(C(C)C)CC5)ncn3)cc2CC1 [Compound 147]	0.696 µM	0.829 µM	> 100 µM	> 100 µM	560 µg/mL (≈ 1040 µM)
N=C(N)NCCCc1cccc(-c2ccc3c4ccc(-c5cccc(CCCNC(=N)N)c5)cc4n(CCCNC(=N)N)c3c2)c1 [Compound 155]	0.272 µM	0.457 µM	131 µM	100 µM	6 µg/mL (≈ 9.73 µM)
N=C(N)NCCCCC(=O)Nc1ccc(Oc2cccc(Oc3ccc(NC(=O)CCCCNC(=N)N)cc3)c2)cc1 [Compound 157]	0.322 µM	0.244 µM	> 100 µM	> 100 µM	299 µg/mL (≈ 520 µM)

— patent publication US20150094294A1, “COMPOUNDS AND METHODS FOR TREATING MALARIA” (Cellceutix Corporation, priority 2012, published 2015)
